From patent US20170150719A1, “FUNGICIDAL PYRAZOLES AND THEIR MIXTURES” (E I DU PONT DE NEMOURS AND COMPANY, priority 2010, published 2017)

What was measured:
Septoria nodorum = assay: Test E: Septoria glume blotch, preventive spray on wheat seedlings, visual disease rating; conditions: 100 = 100% disease control; for pest or weed control at 200 µg/mL: Parastagonospora nodorum, in Triticum aestivum, read-out: Test E rating (disease control), Septoria glume blotch; for pest or weed control at 200 µg/mL / Test E rating (disease control): 0 = no disease control relative to the controls; for Test E rating (disease control): Septoria glume blotch
Procedure: General protocol for preparing test suspensions for Tests A-I: the test compounds were first dissolved in acetone in an amount equal to 3% of the final volume and then suspended at the desired concentration (in ppm) in acetone and purified water (50/50 mix by volume) containing 250 ppm of the surfactant Trem® 014 (polyhydric alcohol esters). The resulting test suspensions were then used in Tests A-I. Each test was conducted in triplicate, and the results were averaged. Spraying a 200 ppm test suspension to the point of run-off on the test plants was the equivalent of a rate of about 800 g/ha. Unless otherwise indicated, the rating values indicate a 200 ppm test suspension was used. (An asterisk “*” next to the rating value indicates a 40 ppm test suspension was used.)
The test suspension was sprayed to the point of run-off on wheat seedlings. The following day the seedlings were inoculated with a spore suspension of Septoria nodorum (the causal agent of Septoria glume blotch) and incubated in a saturated atmosphere at 24° C. for 48 h, and then moved to a growth chamber at 20° C. for 9 days, after which time visual disease ratings were made.

Alternaria solani = assay: Test B: tomato early blight, preventive spray on tomato seedlings, visual disease rating; conditions: for pest or weed control at 200 µg/mL: Alternaria solani, in Solanum lycopersicum, read-out: Test B rating (disease control); for Test B rating (disease control): 0 = no disease control relative to the controls
Botrytis cinerea = assay: Test A: tomato Botrytis, preventive spray on tomato seedlings, visual disease rating; conditions: 100 = 100% disease control; for pest or weed control at 200 µg/mL: Botrytis cinerea, in Solanum lycopersicum, read-out: Test A rating (disease control), tomato Botrytis; for pest or weed control at 200 µg/mL / Test A rating (disease control): 0 = no disease control relative to the controls
[1] = system: Blumeria graminis f. sp. tritici; assay: Test I: wheat powdery mildew, preventive spray on wheat seedlings, visual disease rating; conditions: 100 = 100% disease control; for pest or weed control at 200 µg/mL: Blumeria graminis, in Triticum aestivum, read-out: Test I rating (disease control), wheat powdery mildew; for pest or weed control at 200 µg/mL / Test I rating (disease control): 0 = no disease control relative to the controls
Septoria tritici [2] = assay: Test F: wheat leaf blotch, preventive spray on wheat seedlings, visual disease rating; assay type: in vivo; conditions: 100 = 100% disease control; for pest or weed control at 200 µg/mL: Zymoseptoria tritici; for pest or weed control at 200 µg/mL / Test F rating (disease control): 0 = no disease control relative to the controls
From the text: (§1) A hyphen (-) indicates no test results.

[3] = system: Puccinia recondita f. sp. tritici; assay: Test H: wheat leaf rust, preventive spray on wheat seedlings, visual disease rating; conditions: 100 = 100% disease control; for pest or weed control at 200 µg/mL: read-out: Test H rating (disease control), wheat leaf rust, sprayed the day before inoculation; for pest or weed control at 200 µg/mL / Test H rating (disease control): 0 = no disease control; for Test H rating (disease control): sprayed the day before inoculation
[4] = system: Puccinia recondita f. sp. tritici; assay: Test G: wheat leaf rust, spray after inoculation (curative) on wheat seedlings, visual disease rating; assay type: in vivo; conditions: 100 = 100% disease control; for pest or weed control at 200 µg/mL / Test G rating (disease control): sprayed after inoculation, 0 = no disease control
From the text: as §1

Phytophthora infestans = assay: whole plant or invertebrate; assay type: in vivo; conditions: for pest or weed control at 200 µg/mL: Phytophthora infestans, in Solanum lycopersicum, read-out: Test C rating (disease control)
Septoria tritici [5] = assay: Tests N1 and N2: growth inhibition of Septoria tritici on solid medium in 96-well plates, absorbance at 600 nm, observed and Colby expected; assay type: cell-based; conditions: Zymoseptoria tritici
From the text: Tests N1 and N2 involved evaluation of mixtures of Compound 81 with 2-[(3-bromo-8-methyl-6-quinolinyl)oxy]-N-(1,1-dimethyl-2-propyn-1-yl)-2-(methylthio)acetamide (Compound A1) and 2-[(3-bromo-6-quinolinyl)oxy]-N-(1,1-dimethylethyl)butanamide (Compound A2), respectively, for inhibiting the growth of Septoria tritici (the causal agent of wheat leaf blotch). The general protocol for preparing test compositions was as follows. Compound 81 (Tests N1 and N2), Compound A1 (Test N1) and Compound A2 (Test N2) were obtained as unformulated, technical-grade materials. Unformulated test compounds were first dissolved in DMSO at the appropriate concentration to provide the desired concentration (in μM) after mixing with the fungal growth medium in the wells of 96-well plates containing 200 μL fungal growth medium per well. The ranges of compound concentrations were chosen to span a range of inhibitory activity from 0 to near 100% to identify any synergistic action when Septoria tritici was treated with compounds added in combination. The DMSO solutions of the test compounds were added to the wells prior to addition of the fungal growth medium.
The fungal growth solid medium was prepared by forming an aqueous mixture containing dipotassium hydrogen phosphate (3.0 g/L), potassium dihydrogen phosphate (4.0 g/L), sodium chloride (0.5 g/L), ammonium chloride (1.0 g/L), magnesium sulfate heptahydrate ([…]) and calcium chloride dihydrate (0.01 g/L), also containing 1 mL/L of a trace element solution (manganese sulfate hydrate (0.1 mg/mL), zinc sulfate heptahydrate (0.2 mg/mL), copper(II) sulfate pentahydrate (0.2 mg/mL), iron(II) sulfate heptahydrate (0.2 mg/mL), sodium molybdate dihydrate (0.1 mg/mL), cobalt(II) sulfate heptahydrate (0.06 mg/mL), boric acid (0.08 mg/mL)), and supplemented with 50 μL/L of a biotin stock solution (0.1 mg/mL). The pH was adjusted to 6.8 with aqueous 1 M sodium carbonate solution. The mixture was further supplemented with 1 g/L of yeast extract, and GELRITE gellan gum (Kelco) (4 g/L) was added. Sufficient water was added to bring the volume to 90% of final volume (e.g., 900 mL volume for preparation of 1 L of fungal growth medium). The mixture was autoclaved. On cooling to 60° C., 100 mL/L of aqueous dextrose solution (10 g/L), 500 μL/L of aqueous ampicillin solution (100 mg/mL) and 500 μL/L of rifampicin solution (10 mg/mL in DMSO) were added to provide the final volume of fungal growth medium, which was then dispensed while still warm using a microliter pipette to the wells of the 96-well plates. The dispensed fungal growth medium in each well was agitated using the tip of the dispensing pipette to mix it with the DMSO solution containing the test compounds.
After the fungal growth medium in the wells had cooled to room temperature and solidified, the top surface of the growth medium in each well was inoculated with 20 μL of a suspension of fungus containing 8×10^4 cells. Following a 2 h period of drying in a sterile hood, plates were placed in a dark incubator at 25° C. for 5 d.
Fungal growth was assessed on a plate reader set to measure absorbance of 600 nm light. The percent growth inhibition observed (Obsd.) in Tests N1 and N2, as well as the percent growth inhibition expected (Exp.) from calculation using the Colby equation, are listed in Tables L and M, respectively.

[6] = tomato early blight, 100 = 100% disease control

`Cc1nn(C)c(Nc2c(F)cc(F)cc2Cl)c1-c1ccc(C#N)cc1F` [Compound 238, 4-[5-[(2-chloro-4,6-difluorophenyl)amino]-1,3-dimethyl-1H-pyrazol-4-yl]-3-fluorobenzonitrile] showed a melting point of 177 to 179 °C.
`Cc1nn(C)c(Nc2c(F)cccc2Br)c1-c1c(F)cccc1F` [Compound 247, N-(2-bromo-6-fluorophenyl)-4-(2,6-difluorophenyl)-1,3-dimethyl-1H-pyrazol-5-amine] gave a melting point of 127 to 129 °C.
`Cc1nn(C)c(Nc2c(F)cc(Cl)cc2Cl)c1-c1ccc(F)cc1Cl` [Compound 136, 4-(2-chloro-4-fluorophenyl)-N-(2,4-dichloro-6-fluorophenyl)-1,3-dimethyl-1H-pyrazol-5-amine] showed a pest or weed control at 200 µg/mL (Septoria nodorum) of 100%, a pest or weed control at 200 µg/mL (Alternaria solani) of 100% and a pest or weed control at 200 µg/mL (Botrytis cinerea) of 100%. It also gave a pest or weed control at 200 µg/mL [1] of 100%, a pest or weed control at 200 µg/mL (Septoria tritici [2]) of 100% and a pest or weed control at 200 µg/mL [3] of 100%. For the same compound, the pest or weed control at 200 µg/mL [4] was 100% and the pest or weed control at 200 µg/mL (Phytophthora infestans) was 0%.
In the case of `Cc1nn(C)c(Nc2c(F)cccc2Br)c1-c1ccc(F)cc1F` [Compound 245, N-(2-bromo-6-fluorophenyl)-4-(2,4-difluorophenyl)-1,3-dimethyl-1H-pyrazol-5-amine], the melting point is reported as 149 to 151 °C.
Work on `CCC(Oc1ccc2ncc(Br)cc2c1)C(=O)NC(C)(C)C` (centres unmarked) [Compound A2, 2-[(3-bromo-6-quinolinyl)oxy]-N-(1,1-dimethylethyl)butanamide, reference compound] yielded an inhibition at 0.032 µM (Septoria tritici [5]; Compound A2 alone 0.032 μM, read-out: % inhibition Obsd. (Test N2)) of 0%, an inhibition at 0.16 µM (Septoria tritici [5]; Compound A2 alone 0.16 μM, read-out: % inhibition Obsd. (Test N2)) of 6.5% and an inhibition at 0.8 µM (Septoria tritici [5]; Compound A2 alone 0.8 μM, read-out: % inhibition Obsd. (Test N2)) of 11.5%. The inhibition at 4 µM (Septoria tritici [5]; Compound A2 alone 4 μM, read-out: % inhibition Obsd. (Test N2)) was 95% and the inhibition at 20 µM (Septoria tritici [5]; Compound A2 alone 20 μM, read-out: % inhibition Obsd. (Test N2)) was 96%.
`Cc1nn(C)c(Nc2c(F)cc(Br)cc2F)c1-c1c(F)cccc1F` [Compound 145, N-(4-bromo-2,6-difluorophenyl)-4-(2,6-difluorophenyl)-1,3-dimethyl-1H-pyrazol-5-amine] showed a pest or weed control at 200 µg/mL (Septoria nodorum) of 0%, a pest or weed control at 200 µg/mL (Alternaria solani) of 0% and a pest or weed control at 200 µg/mL (Botrytis cinerea) of 99%. For the same compound, the pest or weed control at 200 µg/mL [1] was 90%, the pest or weed control at 200 µg/mL (Septoria tritici [2]) was 100% and the pest or weed control at 200 µg/mL [3] was 28%. It also gave a pest or weed control at 200 µg/mL [4] of 0% and a pest or weed control at 200 µg/mL (Phytophthora infestans) of 0%.
With `Cc1nn(C)c(Nc2c(F)cc(Cl)cc2Cl)c1-c1ccc(F)cc1F` [Compound 161, N-(2,4-dichloro-6-fluorophenyl)-4-(2,4-difluorophenyl)-1,3-dimethyl-1H-pyrazol-5-amine] the “Test E rating (disease control)” value (Septoria nodorum) was 100%, the “Test B rating (disease control)” value (Alternaria solani; [6]) was 99% and the “Test A rating (disease control)” value (Botrytis cinerea; tomato Botrytis) was 100%. The “Test I rating (disease control)” value ([1]; wheat powdery mildew) was 100%, the “Test F rating (disease control)” value (Septoria tritici [2]) was 99% and the “Test H rating (disease control)” value ([3]; wheat leaf rust) was 100%. For the same compound, the “Test G rating (disease control)” value [4] was 100% and the pest or weed control at 200 µg/mL (Phytophthora infestans) was 0%.
In the case of `C#CC(C)(C)NC(=O)C(Oc1cc(C)c2ncc(Br)cc2c1)SC` (centres unmarked) [Compound A1, 2-[(3-bromo-8-methyl-6-quinolinyl)oxy]-N-(1,1-dimethyl-2-propyn-1-yl)-2-(methylthio)acetamide, reference compound], the inhibition at 0.00032 µM (Septoria tritici [5]; Compound A1 alone 0.00032 μM, read-out: % inhibition Obsd. (Test N1)) is reported as 3%, the inhibition at 0.0016 µM (Septoria tritici [5]; Compound A1 alone 0.0016 μM, read-out: % inhibition Obsd. (Test N1)) is reported as 5% and the inhibition at 0.008 µM (Septoria tritici [5]; Compound A1 alone 0.008 μM, read-out: % inhibition Obsd. (Test N1)) is reported as 14.5%. It also gave an inhibition at 0.04 µM (Septoria tritici [5]; Compound A1 alone 0.04 μM, read-out: % inhibition Obsd. (Test N1)) of 97% and an inhibition at 0.2 µM (Septoria tritici [5]; Compound A1 alone 0.2 μM, read-out: % inhibition Obsd. (Test N1)) of 98%.
For `Cc1nn(C)c(Nc2c(F)cccc2Br)c1-c1ccc(F)cc1Br` [Compound 244, 4-(2-bromo-4-fluorophenyl)-N-(2-bromo-6-fluorophenyl)-1,3-dimethyl-1H-pyrazol-5-amine], the melting point was 154 to 156 °C.
With `Cc1nn(C)c(Nc2ccc(Cl)cc2F)c1-c1c(F)cccc1F` [compound 162] the “Test E rating (disease control)” value (Septoria nodorum) was 0%, the “Test B rating (disease control)” value (Alternaria solani; [6]) was 88% and the “Test A rating (disease control)” value (Botrytis cinerea; tomato Botrytis) was 100%. For the same compound, the “Test I rating (disease control)” value ([1]; wheat powdery mildew) was 100%, the “Test F rating (disease control)” value (Septoria tritici [2]) was 100% and the “Test H rating (disease control)” value ([3]; wheat leaf rust) was 100%. The “Test G rating (disease control)” value [4] was 9% and the “Test C rating (disease control)” value (Phytophthora infestans; tomato late blight, 100 = 100% disease control, 0 = no disease control relative to the controls) was 0%.
Work on `Cc1nn(C)c(Nc2ccc(F)cc2Cl)c1-c1ccc(F)cc1Cl` [Compound 47, N,4-bis(2-chloro-4-fluorophenyl)-1,3-dimethyl-1H-pyrazol-5-amine] yielded a pest or weed control at 200 µg/mL (Septoria nodorum) of 82%, a pest or weed control at 200 µg/mL (Alternaria solani) of 99% and a pest or weed control at 200 µg/mL (Botrytis cinerea) of 100%. For the same compound, the pest or weed control at 200 µg/mL [1] was 100%, the pest or weed control at 200 µg/mL (Septoria tritici [2]) was 96% and the pest or weed control at 200 µg/mL [3] was 99%. It also gave a pest or weed control at 200 µg/mL [4] of 93% and a pest or weed control at 200 µg/mL (Phytophthora infestans) of 0%.
With `CCOc1cc(F)c(-c2c(C)nn(C)c2Nc2c(F)cc(Cl)cc2F)c(F)c1` [compound 199] the “Test E rating (% disease control)” value (Septoria nodorum; Septoria glume blotch on wheat, preventive spray, rating without asterisk) was 69%, the “Test B rating (% disease control)” value (Alternaria solani; tomato early blight, preventive spray, 100 = 100% disease control, rating without asterisk) was 100% and the “Test A rating (% disease control)” value (Botrytis cinerea; tomato Botrytis, preventive spray, 0 = no control relative to controls, rating without asterisk) was 100%. The “Test I rating (% disease control)” value ([1]; wheat powdery mildew, preventive spray, rating without asterisk) was 99%, the “Test F rating (% disease control)” value (Septoria tritici [2]; preventive spray, rating without asterisk) was 100% and the “Test H rating (% disease control)” value ([3]; wheat leaf rust, preventive spray, rating without asterisk) was 83%. For the same compound, the “Test G rating (% disease control)” value ([4]; spray after inoculation, rating without asterisk) was 0% and the “Test C rating (% disease control)” value (Phytophthora infestans; tomato late blight, preventive spray, 100 = 100% disease control, rating without asterisk) was 68%.
